According to PubChem BioAssay (NCI):
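1) Cells in 96-well plates. 2) Compound, 48 h, 5 concentrations. 3) Linear interpolation between surrounding doses. 4) Unreached endpoint = highest concentration. TGI is the concentration that stops growth completely.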

Assays:
Test in all cases: NCI anticancer screen, dose series, 48 h
T-47D breast = test system: T-47D breast
PC-3 prostate = test system: PC-3 prostate
MDA-MB-231 breast = test system: MDA-MB-231 breast
SF-295 CNS = test system: SF-295 CNS
HCT-15 colon = test system: HCT-15 colon
SK-MEL-2 melanoma = test system: SK-MEL-2 melanoma
HS 578T breast = test system: HS 578T breast
MDA-N = test system: MDA-N
DU-145 prostate = test system: DU-145 prostate
UO-31 renal = test system: UO-31 renal
HOP-62 NSCLC = test system: HOP-62 NSCLC

O=C(NCc1cccnc1)NCc1cccnc1
TGI (T-47D breast): > 100 µM | TGI (PC-3 prostate): > 100 µM | TGI (MDA-MB-231 breast): > 100 µM | TGI (SF-295 CNS): > 100 µM | TGI (HCT-15 colon): > 100 µM | TGI (SK-MEL-2 melanoma): > 100 µM | TGI (HS 578T breast): > 100 µM | TGI (MDA-N): > 100 µM | TGI (DU-145 prostate): > 100 µM | TGI (UO-31 renal): > 100 µM | TGI (HOP-62 NSCLC): > 100 µM

O=C(O[C@H]1[C@@H](O)[C@H](n2cnc3c(Cl)ncnc32)O[C@@H]1COC(c1ccccc1)(c1ccccc1)c1ccccc1)c1ccccc1
TGI (T-47D breast): 24.9 µM | TGI (PC-3 prostate): 24.5 µM | TGI (MDA-MB-231 breast): 51.1 µM | TGI (SF-295 CNS): 53.9 µM | TGI (HCT-15 colon): > 100 µM | TGI (SK-MEL-2 melanoma): 49.7 µM | TGI (HS 578T breast): 8.78 µM | TGI (MDA-N): > 100 µM | TGI (DU-145 prostate): 3.85 µM | TGI (UO-31 renal): 2.73 µM | TGI (HOP-62 NSCLC): 51.7 µM

CCCCCC/C=C\CCCCCCCCCc1cccc(O)c1C(=O)O
TGI (T-47D breast): > 100 µM | TGI (PC-3 prostate): > 100 µM | TGI (MDA-MB-231 breast): > 100 µM | TGI (SF-295 CNS): > 100 µM | TGI (HCT-15 colon): > 100 µM | TGI (SK-MEL-2 melanoma): 95.8 µM | TGI (HS 578T breast): > 100 µM | TGI (MDA-N): > 100 µM | TGI (DU-145 prostate): > 100 µM | TGI (UO-31 renal): > 100 µM | TGI (HOP-62 NSCLC): > 100 µM

CC(=O)OCC(OC(C)=O)C(OC(C)=O)C(C=NN(C(C)=O)S(=O)(=O)c1ccc(/C=C2\NC(=O)NC2=O)cc1)OC(C)=O (centres undefined)
TGI (T-47D breast): > 100 µM | TGI (PC-3 prostate): > 100 µM | TGI (MDA-MB-231 breast): > 100 µM | TGI (SF-295 CNS): > 100 µM | TGI (HCT-15 colon): > 100 µM | TGI (SK-MEL-2 melanoma): > 100 µM | TGI (HS 578T breast): > 100 µM | TGI (MDA-N): > 100 µM | TGI (DU-145 prostate): > 100 µM | TGI (UO-31 renal): > 100 µM | TGI (HOP-62 NSCLC): > 100 µM

O=c1oc2ccccc2c(Nc2ccc3c(c2)S(=O)(=O)c2ccccc2O3)c1[N+](=O)[O-]
TGI (T-47D breast): 62.3 µM | TGI (PC-3 prostate): 62.1 µM | TGI (MDA-MB-231 breast): 67.9 µM | TGI (SF-295 CNS): 77.7 µM | TGI (HCT-15 colon): > 100 µM | TGI (SK-MEL-2 melanoma): 46.4 µM | TGI (HS 578T breast): > 100 µM | TGI (MDA-N): 85.3 µM | TGI (DU-145 prostate): > 100 µM | TGI (UO-31 renal): 99.4 µM | TGI (HOP-62 NSCLC): > 100 µM

CC1CCCc2c(C#N)c(N)nc(-c3ccc(Cl)cc3)c21 (centres undefined)
TGI (T-47D breast): 74.5 µM | TGI (PC-3 prostate): 42.9 µM | TGI (MDA-MB-231 breast): 81.8 µM | TGI (SF-295 CNS): 49.2 µM | TGI (HCT-15 colon): > 100 µM | TGI (SK-MEL-2 melanoma): 44.4 µM | TGI (HS 578T breast): > 100 µM | TGI (MDA-N): 93.9 µM | TGI (DU-145 prostate): > 100 µM | TGI (UO-31 renal): 79.7 µM | TGI (HOP-62 NSCLC): 24.8 µM

CC1=C2C(=O)c3ccccc3C(=O)[C@H]2[C@H]2CCO[C@H]2O1
TGI (T-47D breast): > 100 µM | TGI (PC-3 prostate): > 100 µM | TGI (MDA-MB-231 breast): 51.7 µM | TGI (SF-295 CNS): 48.9 µM | TGI (HCT-15 colon): 86 µM | TGI (SK-MEL-2 melanoma): 36.6 µM | TGI (HS 578T breast): > 100 µM | TGI (MDA-N): 36.6 µM | TGI (DU-145 prostate): 47 µM | TGI (UO-31 renal): 35.7 µM | TGI (HOP-62 NSCLC): 40 µM

O=c1oc2ccccc2c2c(=O)c3ccc(OC/C(=N/O)c4ccc(Cl)cc4)cc3oc12
TGI (T-47D breast): 88.4 µM | TGI (PC-3 prostate): 24.5 µM | TGI (MDA-MB-231 breast): 43.2 µM | TGI (SF-295 CNS): 7.1 µM | TGI (HCT-15 colon): 24.5 µM | TGI (SK-MEL-2 melanoma): 24.1 µM | TGI (HS 578T breast): 42.1 µM | TGI (MDA-N): 10.9 µM | TGI (DU-145 prostate): 36.1 µM | TGI (UO-31 renal): 30.8 µM | TGI (HOP-62 NSCLC): 31.5 µM

C=CCOC(=O)/C(=C\c1ccc(OC)c(OC)c1)c1ccc(OC)c(OC)c1
TGI (T-47D breast): 98.4 µM | TGI (PC-3 prostate): > 100 µM | TGI (MDA-MB-231 breast): > 100 µM | TGI (SF-295 CNS): > 100 µM | TGI (HCT-15 colon): > 100 µM | TGI (SK-MEL-2 melanoma): > 100 µM | TGI (HS 578T breast): > 100 µM | TGI (MDA-N): > 100 µM | TGI (DU-145 prostate): > 100 µM | TGI (UO-31 renal): 80 µM | TGI (HOP-62 NSCLC): > 100 µM

O=c1oc2ccccc2cc1/C=N/N1C(=S)N(c2ccccc2)C(=Nc2ccccc2)C1=Nc1ccccc1
TGI (T-47D breast): > 100 µM | TGI (PC-3 prostate): > 100 µM | TGI (MDA-MB-231 breast): > 100 µM | TGI (SF-295 CNS): > 100 µM | TGI (HCT-15 colon): > 100 µM | TGI (SK-MEL-2 melanoma): > 100 µM | TGI (HS 578T breast): > 100 µM | TGI (MDA-N): > 100 µM | TGI (DU-145 prostate): > 100 µM | TGI (UO-31 renal): > 100 µM | TGI (HOP-62 NSCLC): > 100 µM

CC(=O)OC1C(O)COC(O[C@H]2CC[C@]34C[C@]35CC[C@]3(C)C([C@@]6(C)CC[C@@H](C(C)(C)O)O6)[C@@H](O)C[C@@]3(C)C5C[C@H](OC3OCC(O)C(O)C3O)[C@H]4C2(C)C)C1OC1OCC(O)C(O)C1O (some centres undefined)
TGI (T-47D breast): > 100 µM | TGI (PC-3 prostate): > 100 µM | TGI (MDA-MB-231 breast): > 100 µM | TGI (SF-295 CNS): > 100 µM | TGI (HCT-15 colon): > 100 µM | TGI (SK-MEL-2 melanoma): > 100 µM | TGI (HS 578T breast): > 100 µM | TGI (MDA-N): > 100 µM | TGI (DU-145 prostate): > 100 µM | TGI (UO-31 renal): > 100 µM | TGI (HOP-62 NSCLC): > 100 µM

CN(C(=O)Cc1cc(Cl)c(Cl)cc1N=C=S)[C@H]1CCCC[C@@H]1N1CCCC1
TGI (T-47D breast): 37.4 µM | TGI (PC-3 prostate): 26.3 µM | TGI (MDA-MB-231 breast): 28.6 µM | TGI (SF-295 CNS): 31.9 µM | TGI (HCT-15 colon): 29.1 µM | TGI (SK-MEL-2 melanoma): 29.2 µM | TGI (HS 578T breast): 42.4 µM | TGI (MDA-N): 28.1 µM | TGI (DU-145 prostate): 27.8 µM | TGI (UO-31 renal): 29.1 µM | TGI (HOP-62 NSCLC): 27.9 µM

Cc1n[nH]c(=O)c2cc(-c3ccccc3)[nH]c12
TGI (T-47D breast): > 100 µM | TGI (PC-3 prostate): 96.6 µM | TGI (MDA-MB-231 breast): > 100 µM | TGI (SF-295 CNS): > 100 µM | TGI (HCT-15 colon): > 100 µM | TGI (SK-MEL-2 melanoma): 91.1 µM | TGI (HS 578T breast): > 100 µM | TGI (MDA-N): > 100 µM | TGI (DU-145 prostate): > 100 µM | TGI (UO-31 renal): > 100 µM | TGI (HOP-62 NSCLC): > 100 µM

Cc1ccc(N2C(=O)C3c4[nH]c5ccccc5c4C4CCC(C(C)(C)C)CC4C3C2=O)cc1 (centres undefined)
TGI (T-47D breast): 36 µM | TGI (PC-3 prostate): 31.8 µM | TGI (MDA-MB-231 breast): 15.8 µM | TGI (SF-295 CNS): 24.3 µM | TGI (HCT-15 colon): > 100 µM | TGI (SK-MEL-2 melanoma): 44.6 µM | TGI (HS 578T breast): 16.9 µM | TGI (MDA-N): 44.1 µM | TGI (DU-145 prostate): 5.82 µM | TGI (UO-31 renal): 31.3 µM | TGI (HOP-62 NSCLC): 11.6 µM

CC(C)[C@@H]1NC(=O)[C@H]2N=C(O[C@@H]2C)[C@@H]2CCCN2C(=O)[C@H](Cc2ccccc2)NC(=O)[C@@H]2CSC(=N2)[C@@H](Cc2ccccc2)NC(=O)[C@@H]2CSC1=N2
TGI (T-47D breast): > 50 µM | TGI (PC-3 prostate): > 50 µM | TGI (MDA-MB-231 breast): > 50 µM | TGI (SF-295 CNS): > 50 µM | TGI (HCT-15 colon): > 50 µM | TGI (SK-MEL-2 melanoma): > 50 µM | TGI (HS 578T breast): > 50 µM | TGI (MDA-N): > 50 µM | TGI (DU-145 prostate): > 50 µM | TGI (UO-31 renal): > 50 µM | TGI (HOP-62 NSCLC): > 50 µM

O=C(N=S(NC(=O)c1ccccc1)C(Cl)(Cl)Cl)c1ccccc1 (centres undefined)
TGI (T-47D breast): 67.5 µM | TGI (PC-3 prostate): > 100 µM | TGI (MDA-MB-231 breast): > 100 µM | TGI (SF-295 CNS): > 59 µM | TGI (HCT-15 colon): 27 µM | TGI (SK-MEL-2 melanoma): 70.1 µM | TGI (HS 578T breast): 99.5 µM | TGI (MDA-N): > 100 µM | TGI (DU-145 prostate): > 100 µM | TGI (UO-31 renal): 29.9 µM | TGI (HOP-62 NSCLC): > 31.6 µM

CC1(CCC2C=CCC2)CCCNC1=S (centres undefined)
TGI (T-47D breast): > 10 µM | TGI (PC-3 prostate): > 10 µM | TGI (MDA-MB-231 breast): > 10 µM | TGI (SF-295 CNS): > 10 µM | TGI (HCT-15 colon): > 10 µM | TGI (SK-MEL-2 melanoma): > 10 µM | TGI (HS 578T breast): > 10 µM | TGI (MDA-N): > 10 µM | TGI (DU-145 prostate): > 10 µM | TGI (UO-31 renal): > 10 µM | TGI (HOP-62 NSCLC): > 10 µM

Cc1ccc(-c2nc3ccc(Cl)cc3[nH]2)cc1
TGI (T-47D breast): > 100 µM | TGI (PC-3 prostate): > 100 µM | TGI (MDA-MB-231 breast): > 100 µM | TGI (SF-295 CNS): > 100 µM | TGI (HCT-15 colon): > 100 µM | TGI (SK-MEL-2 melanoma): > 100 µM | TGI (HS 578T breast): > 100 µM | TGI (MDA-N): > 100 µM | TGI (DU-145 prostate): > 100 µM | TGI (UO-31 renal): > 100 µM | TGI (HOP-62 NSCLC): > 100 µM

COc1nc2c(c(=O)n1C)N(C(C)=O)C1C(N2)OCC(OC(C)=O)C1OC(C)=O (centres undefined)
TGI (T-47D breast): > 10 µM | TGI (PC-3 prostate): > 10 µM | TGI (MDA-MB-231 breast): > 10 µM | TGI (SF-295 CNS): > 10 µM | TGI (HCT-15 colon): > 10 µM | TGI (SK-MEL-2 melanoma): > 10 µM | TGI (HS 578T breast): > 10 µM | TGI (MDA-N): > 10 µM | TGI (DU-145 prostate): > 10 µM | TGI (UO-31 renal): > 10 µM | TGI (HOP-62 NSCLC): > 10 µM
